Data published in patent US7445931B2, “Compositions and methods for enrichment of neural stem cells using ceramide analogs” (Bresagen, Inc., priority 2002, dated 2008).

Legend:
differentiating ES cells = test: Apoptosis (TUNEL) in ceramide-depleted differentiating ES cells and its restoration by ceramide or analogs; assay type: cell-based, mouse; conditions: for reduction of the degree of apoptosis: EB8 and NP2 stage, 25 μM FB1 or 50 nM myriocin for 48 hours
Experimental: Fumonisin B1 (FB1) or myriocin-treated (ceramide-depleted) differentiating ES cells were incubated with natural ceramide. To prepare the natural ceramide, 50 mg of EBs or NPs were resuspended in 500 μl of water, and after phase separation with 500 μl of CHCl3/CH3OH (1:1 by vol.) the neutral lipids were recovered from the lower phase. The neutral lipids were evaporated to dryness with a gentle stream of nitrogen and redissolved in 1 ml of CHCl3. The solution was applied to a silicic acid gel column (0.5 g) and fatty acids and cholesterol washed out with another 15 ml of CHCl3 (Dasgupta and Hogan, 2001 J. Lipid Res., 42:301-308). The ceramide fraction was then eluted with 20 ml of CHCl3/acetone (9:1, by vol.), evaporated to dryness, and the residue (approximately 6 nmoles of ceramide) dissolved in 20 μl of ethanol containing 2% dodecane (vol./vol.). Aliquots of 5 μl were mixed with 1 ml of medium, yielding a final concentration of 1.5 μM natural ceramide for induction of apoptosis (Ji et al., 1995 FEBS Lett., 358:211-214).
Differentiating ES cells at the EB8 cells were dissociated and grown for 24 hours on laminin/ornithin-coated cover slips (NP1 stage) in DMEM/F12 (50/50), supplemented with 1×N2 and 20 ng/ml FGF-2. Cells were incubated for 3 hours with 10 μM bromodeoxyuridine (BrdU) and the TUNEL assay or immunostainings performed after 5 hours of incubation. For immunostaining, cells were fixed with 4% paraformaldehyde in phosphate-buffered saline (PBS). Fixed cells were permeabilized with 0.2% Triton X-100 in PBS for 5 minutes at room temperature and immunostaining performed as described previously (Bieberich et al., 2001 J. Biol. Chem., 276:44396-44404). The nuclei were stained by treatment with 2 μg/ml Hoechst 33258 in PBS for 30 minutes at room temperature. Apoptotic nuclei were stained using the fluorescein FragEL TUNEL assay according to instructions of the manufacturer (Oncogene).
The degree of apoptosis in differentiating ES cultures was determined since it was previously proposed that ceramide elevation induces apoptosis in NPs (Bieberch et al., 2001 J. Biol. Chem., 276:44396-44404). […] Apoptosis was elevated at the EB8 stage ([…]), and was highest at the NP2 stage (35+/−5%). […] Apoptosis was restored by the addition of 30 μM N-acetyl sphingosine (C2-ceramide), 80 μM of the novel ceramide analog N-oleoyl serinol (S18), or 1 μM of natural ceramide that was extracted from differentiating ES cells.

[1] = tested on: differentiating ES-J1 cells; test: Apoptosis (TUNEL staining, cell death) in differentiating mouse ES cells incubated with ceramide analogs; assay type: cell-based; conditions: 15 hours with 75 μM S16 or S18, or 35 μM C2-ceramide
Experimental: In vitro neural differentiation of mouse ES cells (ES-J1, ES-D3) followed a serum deprivation protocol as described previously (Hancock, et al., 2000 Biochem. Biophys. Res. Commun., 271: 418-421). The differentiation stages are outlined in FIG. 2. Briefly, ES cells were grown on gamma-irradiated feeder fibroblasts for four days in Knockout DMEM/15% Knockout serum replacement, supplemented with ESGRO (LIF; Chemicon; Cat No. ESG1106) at a concentration of 10^3 units/ml medium. ES cells were then grown for another four days on gelatin-coated bacterial culture dishes without a fibroblast feeder layer, and were then grown for three days in Knockout DMEM/15% heat-inactivated ES qualified Fetal Bovine Serum, supplemented with 10^3 units LIF per ml of medium. Upon trypsinization, ES cells were transferred to bacterial culture dishes without gelatin, and embryoid body (EB) formation was induced for four days in Knockout DMEM/10% heat-inactivated ES qualified FBS without LIF (EB4 stage). On the fifth day, floating and loosely attached EBs were rinsed off and transferred to tissue culture dishes. The EBs were allowed to attach to the tissue culture dish surface by incubation for another 24 hours in Knockout DMEM with 10% heat-inactivated ES qualified fetal bovine serum. Neural differentiation due to serum deprivation was induced by cultivation of the EBs for three days in DME/12 (50/50), supplemented with 1×N2 (Invitrogen/Life Technologies; Cat No. 17502, dilution of 1:100) but without serum (EB8 stage). Serum-deprived EBs were then trypsinized, plated on poly-L-ornithine/laminin-coated tissue culture dishes and grown for four days in DMEM/F12 (50/50), supplemented with N2 and 10 ng/ml FGF-2, but without serum. This incubation period is referred to as neuroprogenitor (NP) stage due to commitment of neuroepithelial precursor cells to neuroprogenitor cells, and/or due to the selective expansion of neural progenitor cells in the FGF-2 containing serum-free medium. These cells have committed during the EB stages and were expanded during the NP stage. NPs grown for 48 hours upon replating of trypsinized EBs were referred to as the NP2 stage. On the fifth day of NP formation, the medium was changed to Neurobasal (Invitrogen/Life Technologies; Cat No. 21103-049), with 5% heat-inactivated FBS, and the cells were incubated for another seven days. During this time, NPs fully differentiate to glial cells and neurons. Cells cultured for 24 hours or 96 hours upon changing the medium were referred to as the D1 or D4 stage, respectively.
ES cells were cultured and differentiated to the EB4, EB8, NP2, or D4 stage following the protocol as described above. The ceramide analog S18 was dissolved in ethanol at a concentration of 100 mM and then added to the cells at a final concentration of 75 μM in medium. The cells at the EB8 stage were incubated for 48 hours in the presence of the ceramide analog and were then transplanted into mouse brains.
Differentiating ES cells were grown on cover slips and fixed with 4% paraformaldehyde in phosphate-buffered saline (PBS). Fixed cells were permeabilized with 0.5% Triton X-100 in PBS for 5 minutes at room temperature and unspecific binding sites were saturated by incubation with 3% ovalbumin in PBS for 1 hour at 37° C. The cover slips were then incubated with 5 μg/ml primary antibody (anti-ceramide clone 15B4 mouse IgM, Alexis; anti-PAR-4 rabbit IgG, Santa Cruz; anti-PCNA rabbit IgG, Santa Cruz; anti-nestin clone 401 rat IgG, BD Pharmingen) in 0.1% ovalbumin/PBS, followed by incubation with the appropriate fluorescence-labeled secondary antibody (5 μg/ml Alexa 546 conjugated anti-mouse IgG, Molecular Probes; Alexa 488 conjugated anti-rabbit IgG, Molecular Probes, Cy3 conjugated anti-mouse IgM, Jackson) for 2 hours at 37° C. The nuclei were stained by treatment with 2 μg/ml Hoechst 33258 in PBS for 30 minutes at room temperature. […]

[2] = tested on: Mouse neuroblastoma (F-11) cells; test: Induction of apoptosis in mouse neuroblastoma cells (Hoechst 33258 staining); assay type: cell-based; conditions: 24 hours
Experimental: Mouse neuroblastoma (F-11) cells were incubated for 24 hours in 0.1, 0.2, 0.5, or 1.0 μM of laurylgallate (Aldrich). Apoptosis was determined by punctate staining of condensed nuclei with Hoechst 33258 (Sigma, […] medium for 30 minutes at room temperature).

[3] = tested on: differentiating ES cells (NPs), PAR-4; test: S18-induced apoptosis (TUNEL) in NPs after PAR-4 antisense knockdown or PAR-4-RFP overexpression; assay type: cell-based, mouse
Experimental: For construction of PAR-4-REP cDNA, RT-PCR was performed with the oligonucleotide primer pair sense 5′atggcgaccggcggctatcg3′ (SEQ ID NO:14) and antisense 5′ctaccttgtcagctgcccaacaac3′(SEQ ID NO:15), using the first strand cDNA generated from embryoid bodies (EB8 stage) as template for the amplification reaction. The primers were endowed with the restriction enzyme cleaving sites Eco47III (sense) and SaII (antisense) for ligation of the PAR-4 specific amplification product into the multiple cloning site of HcRFP, a vector that encodes a far-red shifted variant of red fluorescent protein (Clontech). Differentiating ES cells at the NP1 stage were transfected with the PAR-4-RFP construct using the lipofectamine 2000 procedure according to the manufacturer's instructions (Invitrogen). The transfected cells were incubated in DMEM F12 (50/50), supplemented with 1×N2 and 20 ng/ml FGF-2, and the TUNEL assay or immunostainings were performed after 48 hours of incubation and NP formation. For depletion of ceramide, differentiating ES cell were incubated with 25 μM fumonisin B1 or 50 nM myriocin 48 hours prior to transfection with the PAR-4-RFP vector, and the inhibitor maintained in the medium throughout the post-transfection period. For induction of apoptosis, the novel ceramide analog S18 (40-100 μM), N-acetyl sphingosine (C2-ceramide, 10-30 μM), or natural ceramide isolated from EBs (0.5-1.5 μM) was added 48 hours after transfection with the PAR-4-RFP cDNA, and the degree of apoptosis quantified after 15-20 hours using TUNEL assays with paraformaldehyde-fixed cells as described above.
(§1) Endogenous expression of PAR-4 was suppressed by transfection of differentiating ES cells at the NP1 stage with 2 nmoles (per well in 24 wells plate) of the morpholino-based antisense oligonucleotide 5′cgatagccgccggtcgccatgttcc3′(SEQ ID NO:16) (see Guo et al., 1998, Nature Med., 4:957-962; Guo et al., 2001 Brain Res, 903:13-25) following the instructions of the manufacturer (GeneTools) in 0.5 ml of serum-free DMEM/F-12, 1XN2 supplemented with 20 ng/ml FGF-2. For induction of apoptosis, the novel ceramide analog S18 (40-100), N-acetyl sphingosine (C2 ceramide, […], or natural ceramide isolated from EBs (0.5-1.5 μM) was added 48 hours after transfection with the anti-PAR-4 morpholino, and the degree of apoptosis quantified after 15-20 hours using TUNEL assays with paraformaldehyde-fixed cells as described above.

PAR-4 = PAR-4 immunoblot after transfection with PAR-4 antisense morpholino; assay type: cell-based, mouse; conditions: NPs transfected with 2 nmoles morpholino
Experimental: as §1
The amount of protein was determined following a modified Folin phenol reagent (Lowry) assay essentially as described in Wang and Smith (1975 Anal. Biochem., 63:414-417). Protein extracted with detergent was precipitated according to the Wessel and Fluegge method (Wessel and Flugge, 1984 Anal. Biochem, 138:141-143). SDS-PAGE was performed using the Laemmli method followed by immunoblotting (Laemmri, 1970 Nature, 227:680-685).

Molecule: CCCCCCCCCCCCC/C=C/[C@@H](O)[C@H](CO)NC(C)=O [C2-ceramide, N-acetyl sphingosine, reference compound]
- dependence of apoptosis on PAR-4 expression (differentiating ES cells; FB1-treated cells at the NP2 stage): only seen in cells that expressed PAR-4
- restoration of apoptosis in FB1-treated cells (differentiating ES cells; NP2 stage, 30 μM C2-ceramide, 80 μM S18, or 1 μM natural ceramide): restored
- number of TUNEL stained cells ([1]; EB8 stage): 45±10%
- number of TUNEL stained cells ([1]; NP2 stage): 70±10%

Molecule: CCCC[C@@H](C)[C@@H](OC(=O)C[C@@H](CC(=O)O)C(=O)O)[C@H](C[C@@H](C)C[C@H](O)CCCC[C@@H](O)C[C@H](O)[C@H](C)N)OC(=O)C[C@@H](CC(=O)O)C(=O)O [FB1, Fumonisin B1, reference compound]
- reduction of the degree of apoptosis (differentiating ES cells): about 50%

Molecule: CCCCCCCCCCCCCCCC(=O)NC(CO)CO [S16, N-(2-hydroxy-1-(hydroxymethyl)ethyl)-palmitoylamide]
- number of TUNEL stained cells ([1]; EB8 stage): 45±10%
- number of TUNEL stained cells ([1]; NP2 stage): 70±10%

Molecule: CCCCCCCCCCCCOC(=O)c1cc(O)c(O)c(O)c1 [laurylgallate, n-dodecyl ester of 3,4,5-trihydroxybenzoic acid]
- cells undergoing apoptosis ([2]; 0.5 μM laurylgallate): 50%
- cells undergone apoptosis ([2]; 1.0 μM laurylgallate): 100%

Molecule: CCCCCCC(=O)CCCCCC/C=C/C[C@@H](O)[C@H](O)[C@@](N)(CO)C(=O)O [myriocin, reference compound]
- reduction of the degree of apoptosis (differentiating ES cells): about 50%

Molecule: LEHD-CHO [reference compound]
- effect of pre-incubation on apoptosis inducible with S18 or natural ceramide ([3]; differentiating ES cells, caspase 9 inhibitor pre-incubation): suppressed apoptosis

Molecule: PAR-4 specific antisense morpholino: morpholino-based antisense oligonucleotide 5′cgatagccgccggtcgccatgttcc3′ (SEQ ID NO:16) (antisense CGATAGCCGCCGGTCGCCATGTTCC; all phosphorodiamidate morpholino (PMO)) [reference compound]
- expression level of PAR-4 relative to untransfected cells (PAR-4): about 25%
- S18-induced apoptosis ([3]; NPs transfected with PAR-4 specific antisense morpholino, then S18): less than 30%
